We go through three compounds from ChEMBL document CHEMBL1128844, “The design, synthesis and evaluation of A,C,D-ring analogs of the fungal metabolite K-76 as complement inhibitors: a potential probe for the absolute stereochemistry at position 2” (1995).

Common to all, as to format: functional
The species named for assay [1] is Homo sapiens. In words: Ability to inhibit human complement-mediated erythrocyte lysis by classical pathway.
The species named for assay [2] is Homo sapiens. In words: Ability to inhibit human complement-mediated erythrocyte lysis by alternate pathway.
The species named for assay [3] is Homo sapiens. In words: Ability to inhibit human complement-mediated erythrocyte lysis by classical pathway at 2000 uM concentration.

`COc1ccc(C(=O)O)c2c1CC(C)(C1CC[C@](C)(O)C(O)C1)O2` (stereo not given in full): the figures for the IH50 in the assay listed under Homo sapiens [1] and in the assay listed under Homo sapiens [2] were 1600 µM and above 2550 µM, respectively. In general, inhibition refers to the percentage by which the read-out fell short of the control. For the compound `C=C(Cc1c(OC)ccc(C(=O)O)c1O)C1CC[C@](C)(O)C(O)C1` (stereo not given in full), the inhibition at 2000 µM in the assay filed under Homo sapiens [3] turned out to be 24%.

Take `C[C@@H]1CCC2C(C)(C)[C@H](O)[C@H](O)C[C@]2(C)[C@@]12Cc1c(O)cc(C(=O)[O-])c(C=O)c1O2.[Na+]` (stereo not given in full): the IH50 in the assay listed under Homo sapiens [1] stood at 570 µM; in the assay listed under Homo sapiens [2], 850 µM.
